# Results reported in US20220023269A1, “Methods Of Treating Diabetes In Severe Insulin-Resistant Diabetic Subjects” (Balticgruppen Bio AB, priority 2018, published 2022).
# Tests used:
# CBA mice on HFD = test: Echocardiography (LV function); type: in vivo; settings: for heart rate: anesthetized
# Method: Left ventricle structure and function were analysed with transthoracic, high-frequency echocardiography using the MS550D transducer. The examination was performed during light isoflurane anaesthesia (1.5-2.0% in 800 mL oxygen). Anaesthesia level was adjusted to keep the respiration rate at 80-110 breaths per minute. Left ventricular volumes were determined in B-mode using a Simpson's rule reconstruction. All images were analysed off-line in a blinded way using the Vevo LAB software 1.7.0. Stroke volume, cardiac output and heart rate were analysed, as well as wall thicknesses and left ventricle diameter. Three measurements/animal was performed for mean values.
# hIAPPtg islets = test: Ex vivo islet amyloid assay; type: cell-based, mouse; settings: 22 mM glucose
# Method: Islets amyloid was quantification was done on pancreatic tissues isolated from hIAPPtg mice on HFD for 16 weeks (n=7 mice/n=69 islets) and hIAPPtg mice on HFD for 9 weeks then switched to test material-HFD (2 mg/g) for 7 weeks (n=5 mice/n=48 islets). Isolated pancreases was direct frozen, sectioned, and amyloid content quantified by staining with Thioflavin-S as previously described (Reference 2). For ex vivo analyses, islets were isolated by collagenase digestion of the pancreas (Reference 1) and cultured in RPMI medium 1640 (GIBCO #11879-0) supplemented with 11.1 or 22.2 mM glucose (GIBCO #A24940-01), 1% fetal bovine serum (GIBCO #10500), 50 U; μg/ml Pen/Strep (Gibco #15140-122), 10 mM Hepes (Umeå University, Laboratory medicine), 1 mM sodium pyruvate (GIBCO #11360-039) and 0.1% 2-Mercaptoethanol (Sigma #M3148). 0, 2.5, 5.0, and 10 μM test material were added from day 0 of culture. For assessing the effect of autophagy inhibition, 3-Methyladenine (3-MA, Aldrich #M9281), 5 μM, was added from day 0 of culture in combination with test material, 5 μM. The control contained DMSO 1:2000. Medium and compounds were changed every second day. After 92 hours of treatment islets were embedded, sectioned and amyloid content quantified by staining with Thioflavin-S as previously described (Reference 2). A minimum of 3 independent experiments was evaluated.
# [1] = tested on: AMPK in human skeletal myotubes; test: AMPK activation assay in human skeletal myotubes; type: cell-based; settings: cells preferentially expressing β2 subunit
# Method: All cell lines were lysed in 0.1 M Tris-HCl, pH 6.8, 2% SDS, 10 mM sodium fluoride (SIGMA #S7920), 10 mM β-glycerophosphate (SIGMA #G6376), and 1 mM sodium vanadate (SIGMA #72060) and supernatant collected after 1 minute at 14,000 rpm. Islets (human and mouse) were lysed in 0.1 M Tris-HCl, pH 6.8, 2% SDS, protease inhibitor (Roche #04 693 124 001) and phosphatase inhibitor (Roche #04 906 837 001). Right calf muscle, heart, iWAT, and interscapular BAT was crushed in a pestle using liquid nitrogen and homogenised in ice cold RIPA buffer (150 mM sodium chloride (SIGMA #S7653), 1.0% NP40 (USB), 0.5% sodium deoxycholate (SIGMA #D6750), 0.1% SDS, 50 mM Tris pH 8.0, 20 mM sodium pyrophosphate (SIGMA #71515), 10 mM sodium fluoride, 10 mM β-glycerolphosphate, 1 mM sodium vanadate and protease inhibitor cocktail (Roche #04693124001), 1 tablet/10 ml lysis buffer). The supernatant was collected after 2 min at 14,000 rpm. This procedure was repeated until all fat was eliminated and the supernatant was clear, at 4° C. Samples were analysed on 4-15% polyacrylamide gels. Values were normalised toward AMPKα, β-Actin, GAPDH or the respective non-phosphorylated counterpart.
# Table 3 contains origin of cell lines, growth conditions and settings for activation of AMPK via the test material. […]
# DIO mice (B6CBAF1/J) = test: Laser Doppler imaging of peripheral blood perfusion; type: in vivo; settings: 40 mg/kg/day gavage, 8 w, vs vehicle
# Method: 9 weeks old F1 mice were fed HFD for 8 weeks and treated with either vehicle or test material (40 mg/kg, orally once a day). Veet hair removal cream was used to remove hair from the left hind limb one day prior to blood perfusion analysis. Mice were anaesthetised using isoflurane and placed on a heating pad. Blood perfusion was scanned using a PeriScan PIM II Images and LDPIwin software (version 2.6.1) was used to analyse the images.
# hIAPPtg DIO mice = test: Prevention of diabetes in hIAPPtg DIO mice (oral gavage, 6 w); type: in vivo; settings: 100 mg/kg/day gavage, 6 w HFD
# [2] = test material-HFD 0.8 or 2 mg/g, 6 w
smiles,measurement,setting,value
"O=C(Nc1nc(=O)n(Cc2ccc(Cl)cc2)s1)c1ccc(Cl)cc1 [test material, 4-chloro-N-[2-[(4-chlorophenyl)methyl]-3-oxo-1,2,4-thiadiazol-5-yl]benzamide]",heart rate,CBA mice on HFD; 0.8 mg/g,normalized
same,heart rate,CBA mice on HFD; 2 mg/g,reduced heart rate
same,increase in stroke volume compared with both RD and HFD,"CBA mice on HFD; test material-HFD 0.8 mg/g and 2 mg/g, 6 w",~20%
same,end-diastolic volume,CBA mice on HFD; [2],normalized end-diastolic volume
same,end-systolic volume,CBA mice on HFD; [2],"dose-dependently improved, but did not fully restore"
same,preventive effect on amyloid formation in presence of autophagy inhibitor 3-MA,hIAPPtg islets; 5.0 μM test material + 5.0 μM 3-MA,significantly attenuated
same,amyloid formation (Thio-S+ deposits),"hIAPPtg islets; 2.5, 5.0, 10 μM, dose-dependent",attenuated amyloid formation
same,pAMPK,[1],increased pAMPK
same,microvascular blood flow in hind legs,DIO mice (B6CBAF1/J),significantly increased microvascular blood flow
same,HOMA-IR and Matsuda index (systemic insulin resistance),hIAPPtg DIO mice,suppressed the development of systemic insulin resistance
same,i.p. and oral glucose-tolerance tests,hIAPPtg DIO mice,prevented the development of glucose intolerance and compensatory hyperinsulinemia
same,6 h fasted blood glucose,hIAPPtg DIO mice; vs vehicle,averted the increase
same,6 h fasted plasma insulin levels,hIAPPtg DIO mice; vs vehicle,averted the increase
